The source of these data is patent publication US20120252721A1 (priority 2011, published 2012).

Series [1] deals with HCV Con1 subgenomic replicon (GS4.1 cells). The series is described as follows: HCV replicon assay (NS5A ELISA, 72 hrs). It is filed as cell-based. The conditions noted are these: Hepatitis C virus. The protocol:
Huh-7 cells containing HCV Con1 subgenomic replicon (GS4.1 cells) were grown in Dulbecco's Modified Eagle Medium (DMEM) supplemented with 10% fetal bovine serum (FBS), 2 mM L-glutamine, 110 mg/L sodium pyruvate, 1× non-essential amino acids, 100 U/mL penicillin-streptomycin, and 0.5 mg/mL G418 (Invitrogen). For dose-response testing, the cells were seeded in 96-well plates at 7.5×10^3 cells/well in a volume of 50 μL, and incubated at 37° C./5% CO2. Three hours after plating, 50 μL often 2-fold serial dilutions of compounds (highest concentration, 75 μM) were added, and cell cultures were incubated at 37° C./5% CO2 in the presence of 0.5% DMSO. Alternatively, compounds were tested at a single concentration of 15 μM. In all cases, Huh-7 cells lacking the HCV replicon served as negative control. The cells were incubated in the presence of compounds for 72 hrs after which they were monitored for expression of the NS5A protein by enzyme-linked immunosorbent assay (ELISA). For this, the plates were then fixed for 1 min with acetone/methanol (1:1, v/v), washed twice with phosphate-buffered saline (PBS), 0.1% Tween 20, blocked for 1 hr at room temperature with TNE buffer containing 10% FBS and then incubated for 2 hr at 37° C. with the anti-NS5A mouse monoclonal antibody A-236 (ViroGen) diluted in the same buffer. After washing three times with PBS, 0.1% Tween 20, the cells were incubated 1 hr at 37° C. with anti-mouse immunoglobulin G-peroxidase conjugate in TNE, 10% FBS. After washing as described above, the reaction was developed with O-phenylenediamine (Zymed). The reaction was stopped after 30 min with 2 NH2SO4, and absorbance was read at 492 nm using Sunrise Tecan spectrophotometer. EC50 values were determined from the % inhibition versus concentration data using a sigmoidal non-linear regression analysis based on four parameters with Tecan Magellan software.
A general note: A replicon is a self-replicating genome or part of one, used to study replication in cells.

Series [2] is described as follows: in vitro. Conditions: human; GS4.1 cells, cellular viability. It is filed as cell-based. Here is the method:
For cytotoxicity evaluation, GS4.1 cells were treated with compounds as described above and cellular viability was monitored using the Cell Titer 96 AQeous One Solution Cell Proliferation Assay (Promega). CC50 values were determined from the % cytotoxicity versus concentration data with Tecan Magellan software as described above.

Bounds are passed on as bounds.

By EC50 is commonly meant the midpoint of the concentration-response curve. Higher therefore signals a need for much substance. Broadly, the CC50 is the concentration that lowers cell viability or growth by half. In the case of `COC(=O)N[C@H](C(=O)N1CCCC1c1nc(-c2ccc(-c3c(C(=O)OC)[nH]c4c(-c5ccc(-c6cnc(C7CCCN7C(=O)[C@@H](NC(=O)OC)C(C)C)[nH]6)cc5)csc34)cc2)c[nH]1)C(C)C` (stereo partly shown) [Compound A163], the EC50 in series [1] was less than 1 nM. In addition, the 50% cytotoxic concentration (CC50) in series [2] was more than 75000 nM.
Regarding `CC(C)(C)OC(=O)N1CCCC1c1ncc(-c2ccc(-c3nc4sccn4c3Cl)cc2)[nH]1` (stereo not shown) [Compound A161], the concentration giving a half-maximal response (EC50) in series [1] is more than 100 nM. In series [2], this compound registered a cytotoxic concentration (CC50) of more than 75000 nM.
Taken in the same sequence, the figures for `COC(=O)N[C@H](C(=O)N1CCCC1c1ncc(-c2cn3cc(-c4ccc(-c5cnc([C@@H]6CCCN6C(=O)[C@@H](NC(=O)OC)C(C)C)[nH]5)cc4)nc3s2)[nH]1)C(C)C` (stereo partly shown) [Compound A7] were less than 1 nM and more than 75000 nM.
Taken in the same sequence, the figures for `COC(=O)N[C@H](C(=O)N1CCCC1c1ncc(-c2ccc(-c3cn4ccsc4n3)cc2)[nH]1)C(C)C` (stereo partly shown) [Compound A160] were 10 to 100 nM and more than 75000 nM.
In the case of `COC(=O)NC(C(=O)N1CCCC1c1ncc(-c2cn3cc(-c4ccc(-c5cnc([C@@H]6CCCN6C(=O)[C@H](NC(=O)OC)c6ccccc6)[nH]5)cc4)nc3s2)[nH]1)c1ccccc1` (stereo partly shown) [Compound A60], in series [1], the EC50 was less than 1 nM. The compound further had a half-maximal cytotoxic concentration (CC50) in series [2] of more than 75000 nM.
Taken in the same sequence, the figures for `CC(C)(C)OC(=O)N[C@@H](C(=O)N1CCOC[C@H]1C(=O)Nc1cn2cc(-c3ccccc3)sc2n1)c1ccccc1` [Compound A22] were more than 100 nM and more than 75000 nM.
In the same order, the values of `COC(=O)N[C@H](C(=O)N1CCC[C@H]1C(=O)Nc1ccc(-c2cn3cc(NC(=O)OC(C)(C)C)nc3s2)cc1)C(C)C` [Compound A34] are 1 to 10 nM and 10000 to 75000 nM.
`COC(=O)N[C@H](C(=O)N1CCCC1c1ncc(-c2cn3cc(-c4ccc(Cl)cc4)sc3n2)[nH]1)C(C)C` (stereo partly shown) [Compound A153] displayed a 50% effective concentration (EC50) in series [1] of 10 to 100 nM. For the same compound, the CC50 in series [2] lay in the range of 10000 to 75000 nM.
Taken in the same sequence, the figures for `COC(=O)N[C@@H](C(=O)N1CCC[C@H]1C(=O)Nc1ccc(-c2cn3cc(NC(=O)[C@@H]4CCCN4C(=O)[C@H](NC(=O)OC)c4ccccc4)nc3s2)cc1)c1ccccc1` [Compound A79] were less than 1 nM and more than 75000 nM.
In series [1], `COC(=O)N[C@H](C(=O)N1CCCC1c1ncc(-c2ccc(-c3csc4c(-c5cnc(C6CCCN6C(=O)[C@@H](NC(=O)OC(C)(C)C)C(C)C)[nH]5)csc34)cc2)[nH]1)C(C)C` (stereo partly shown) [Compound A76] returned a 50% effective concentration (EC50) of less than 1 nM. Also, the half-maximal cytotoxic concentration (CC50) in series [2] is more than 75000 nM.
Taken in the same sequence, the figures for `COC(=O)N[C@H](C(=O)N1CCC[C@H]1c1ncc(-c2ccc(-c3cn4cc(NC(=O)C5CCCN5C(=O)CNC(=O)OC(C)(C)C)nc4s3)cc2)[nH]1)C(C)C` (stereo partly shown) [Compound A31] were 10 to 100 nM and more than 75000 nM.
Taken in the same sequence, the figures for `CC(C)(C)OC(=O)N1CCCC1c1nc(-c2ccc(-c3cn4cc(-c5ccc(-c6cnc([C@@H]7CCCN7C(=O)OC(C)(C)C)[nH]6)cc5)sc4n3)cc2)c[nH]1` (stereo partly shown) [Compound A157] were 10 to 100 nM and more than 75000 nM.
As for `COC(=O)N[C@H](C(=O)N1CCC[C@H]1c1ncc(-c2ccc(-c3cn4cc(NC(=O)[C@@H]5CCCN5)nc4s3)cc2)[nH]1)C(C)C` [Compound A150], the EC50 in series [1] was 10 to 100 nM. This compound came in with a cytotoxic concentration (CC50) in series [2] of 10000 to 75000 nM.
In the same order, the values of `COC(=O)N[C@H](C(=O)N1CCC[C@H]1c1ncc(C#Cc2csc3c(-c4ccc(-c5cnc([C@@H]6CCCN6C(=O)[C@@H](NC(=O)OC)C(C)C)[nH]5)cc4)csc23)[nH]1)C(C)C` [Compound A84, [(S)-1-((S)-2-{4-[4-(6-{2-[(S)-1-((S)-2-methoxycarbonylamino-3-methyl-butyryl)-pyrrolidin-2-yl]-3H-imidazol-4-ylethynyl}-thieno[3,2-b]thiophen-3-yl)-phenyl]-1H-imidazol-2-yl}-pyrrolidine-1-carbonyl)-2-methyl-propyl]-carbamic acid methyl ester] are less than 1 nM and more than 75000 nM.
In the same order, the values of `COC(=O)N[C@H](C(=O)N1CCC[C@H]1c1ncc(-c2ccc(-c3cn4cc(NC(=O)[C@@H]5CCCN5C(=O)[C@H](NC(=O)OC(C)(C)C)c5ccccc5)nc4s3)cc2)[nH]1)C(C)C` [Compound A1, (S,S,S,R)-[1-(2-{5-[4-(6-{[1-(2-tert-butoxycarbonylamino-2-phenyl-acetyl)-pyrrolidine-2-carbonyl]-amino}imidazo[2,1-b]thiazol-2-yl)-phenyl]-1H-imidazol-2-yl}pyrrolidine-1-carbonyl)-2-methyl-propyl]-carbamic acid methyl ester] are less than 1 nM and more than 75000 nM.
In the same order, the values of `COC(=O)N[C@H](C(=O)N1CCCC1c1cc(-c2ccc(-c3csc4c(-c5ccc(-c6cnc(C7CCCN7C(=O)[C@@H](NC(=O)OC)C(C)C)[nH]6)cc5)csc34)cc2)[nH]n1)C(C)C` (stereo partly shown) [Compound A87] are less than 1 nM and more than 75000 nM.
`COC(=O)N[C@H](C(=O)N1CCCC1c1ncc(-c2ccc(-c3csc4c(-c5ccccc5)csc34)cc2)[nH]1)C(C)C` (stereo partly shown) [Compound A103] gave an EC50 in series [1] of 1 to 10 nM. Further, in series [2], the CC50 lay in the range of 10000 to 75000 nM.
Taken in the same sequence, the figures for `COC(=O)N[C@H](C(=O)N1CCCC1c1ncc(-c2ccc(-c3csc4c(-c5cnc(C6CCCN6C(=O)[C@H](NC(=O)OC)C(C)C)[nH]5)csc34)cc2)[nH]1)C(C)C` (stereo partly shown) [Compound A77] were less than 1 nM and more than 75000 nM.
Taken in the same sequence, the figures for `CC(C)(C)OC(=O)N1CCCC1c1ncc(-c2cn3cc(-c4ccc(Cl)cc4)sc3n2)[nH]1` (stereo not shown) [Compound A152] were more than 100 nM and 10000 to 75000 nM.
Turning to `COC(=O)N[C@H](C(=O)N1CCCC1c1nc(-c2ccc(-c3sc4cc(-c5ccc(-c6cnc([C@@H]7CCCN7C(=O)[C@@H](NC(=O)OC)C(C)C)[nH]6)cc5)sc4c3-c3ccc(-c4cnc(C5CCCN5C(=O)[C@@H](NC(=O)OC)C(C)C)[nH]4)cc3)cc2)c[nH]1)C(C)C` (stereo partly shown) [Compound A105], the concentration giving a half-maximal response (EC50) in series [1] was 10 to 100 nM. This compound also returned a CC50 in series [2] of 10000 to 75000 nM.
Taken in the same sequence, the figures for `COC(=O)N[C@H](C(=O)N1CCCC1c1ncc(-c2ccc(-c3cn4c(-c5ccccc5)csc4n3)cc2)[nH]1)C(C)C` (stereo partly shown) [Compound A162] were 1 to 10 nM and 10000 to 75000 nM.
In the same order, the values of `COC(=O)N[C@H](C(=O)N1CCC[C@H]1c1ncc(-c2csc3c(-c4cnc([C@@H]5CCCN5C(=O)[C@@H](NC(=O)OC)C(C)C)[nH]4)csc23)[nH]1)C(C)C` [Compound A82, ((S)-1-{(S)-2-[5-(6-{2-[(S)-1-((S)-2-methoxycarbonylamino-3-methyl-butyryl)-pyrrolidin-2-yl]-3H-imidazol-4-yl}-thieno[3,2-b]thiophen-3-yl)-1H-imidazol-2-yl]-pyrrolidine-1-carbonyl}-2-methyl-propyl)-carbamic acid methyl ester] are less than 1 nM and 10000 to 75000 nM.
In the same order, the values of `COC(=O)N[C@H](C(=O)N1CCC[C@H]1c1cc(-c2ccc(-c3cn4cc(NC(=O)[C@@H]5CCCN5C(=O)[C@H](NC(=O)OC(C)C)c5ccccc5)nc4s3)cc2)[nH]n1)C(C)C` [Compound A156] are less than 1 nM and more than 75000 nM.
In turn, `COC(=O)N[C@H](C(=O)N1CCCC1c1ncc(-c2cc3sc(-c4ncc(-c5c[nH]c([C@@H]6CCCN6C(=O)[C@@H](NC(=O)OC)C(C)C)n5)s4)cc3s2)[nH]1)C(C)C` (stereo partly shown) [Compound A130] returned an EC50 in series [1] of less than 1 nM. In series [2], this compound yielded a CC50 of more than 75000 nM.
In the same order, the values of `CC(C)(C)OC(=O)N1CCC[C@H]1c1ncc(-c2ccc(-c3cn4c(-c5ccccc5)csc4n3)cc2)[nH]1` [Compound A158] are more than 100 nM and 10000 to 75000 nM.
In the same order, the values of `COC(=O)N[C@H](C(=O)N1CCC[C@H]1C(=O)Nc1cn2cc(-c3ccc(-c4cnc([C@@H]5CCCN5C(=O)[C@@H](NC(=O)OC)C(C)C)[nH]4)cc3)sc2n1)C(C)C` [Compound A2, (S,S,S,S)-(1-{2-[2-(4-{2-[1-(2-methoxycarbonylamino-3-methyl-butyryl)-pyrrolidin-2-yl]-3H-imidazol-4-yl}-phenyl)-imidazo[2,1-b]thiazol-6-ylcarbamoyl]-pyrrolidine-1-carbonyl}-2-methyl-propyl)-carbamic acid methyl ester] are 1 to 10 nM and 10000 to 75000 nM.
Taken in the same sequence, the figures for `CC(C)(C)OC(=O)N[C@@H](C(=O)N1CCC[C@H]1C(=O)Nc1cn2cc(-c3ccccc3)sc2n1)c1ccccc1` [Compound A27] were 10 to 100 nM and more than 75000 nM.
Compound `CC(C)(C)OC(=O)N1CCCC1c1ncc(-c2ccc(-c3cn4ccsc4n3)cc2)[nH]1` (stereo not shown) [Compound A167] displayed a concentration for a half-maximal effect (EC50) in series [1] of more than 100 nM.
